Assay results from PMC10534581 (Pharmaceutics, 2023).

How the values were obtained:
patients = tested on: patients; set-up: method as in PMID 19723786, PMID 19934760; details: cited from earlier work
children and adolescents [1] = assay: Adverse effects on Pediatric Adverse Event Rating Scale (PAERS), maximal severity; type: in vivo, human; details: n = 134 (4 missing); for patients with PAERS max. severity 'none' (no adverse effects): FLX 10–40 mg/day
Experimental: On the day of blood collection, treatment responses were measured using the Clinical Global Impression (CGI) Scale (Improvement, CGI-I), which clinicians were instructed to rate solely based on the effects of the drug. […] This instrument was specifically designed to quantify the severity of 56 signs of adverse events occurring in pediatric patients under treatment with a psychotropic drug. The 56 items were rated on a Likert scale with 'none', 'slight', 'moderate', 'severe', and 'extremely severe' responses. The maximal severity on any of the items was considered in this study. […] Additionally, indications for the TDM measurement, detailed information on concomitant medications, nicotine use, weight, and height were also recorded. […] All statistical analyses were performed using R (R Foundation for Statistical Computing) version 4.1.1. The alpha level for all analyses was set to 0.05. To maximize the comparability of the conclusions from the dataset generated in this study, the main analyses were performed with both the last valid timepoint, as in previous relevant studies, and with all the valid timepoints, as detailed in the next paragraph. […] As not all the assumptions were met by the original data, a square-root transformation was applied to the outcome variables. In addition to the simple linear regressions, multiple linear regressions were performed with four additional hypothesized predictors: age (years), sex (male/female), body weight (kg), and smoking status (yes/no). The variance inflation factor (VIF) was evaluated as a measure of multicollinearity. Both regressions were compared based upon model fit. Second, proportional odds models using the clm (cumulative link models) function in the 'ordinal' R package were fitted to examine the serum concentrations as predictors of clinical effects (measured by CGI-I) and adverse effects (measured by PAERS-maximal severity). As there was only a single 'very severe' PAERS response, 'very severe' and 'severe' responses were pooled together. The analyses were repeated with an extended set of hypothesized predictors. For CGI-I, these were age, sex, psychotropic co-medication (i.e., antipsychotic and antidepressant drug), and diagnostic comorbidity (i.e., a single diagnosis versus multiple diagnoses). For PAERS, the predictors were age, sex, and psychotropic co-medication. The proportional odds assumptions in these statistics were verified with likelihood ratio tests using the nominal_test and scale_test functions, while model convergence was tested with the convergence function. […] The clmm (cumulative link mixed models) function from the 'ordinal' package was used to test the impact of metabolite level on clinical and adverse effects with CGI-I and […] […]

CYP2D6 = details: cited from earlier work
[2] = Steady-state trough serum concentration (TDM, HPLC with UV detection); type: in vivo, human; details: for Est. of Dose on square-root serum concentration, multiple linear regression / Est. of Body weight on square-root serum concentration, multiple linear regression: Model 1, last datapoint, sex, smoking; for Est. of Dose on square-root serum concentration, multiple linear regression: covariates age, body weight; for Est. of Body weight on square-root serum concentration, multiple linear regression: covariates dose, age; for Est. of Body weight on square-root serum concentration, linear mixed effect model / Est. of Dose on square-root serum concentration, linear mixed effect model: Model 2, all datapoints, multiple predictors incl. time; for β of daily dose on square-root serum concentration, linear mixed-effect model: all datapoints, dose as only fixed predictor; for steady-state serum concentration, range / mean steady-state serum concentration, mean (SD): children and adolescents n = 138, last datapoint; for steady-state serum concentration, range: FLX 10–40 mg/day; for mean steady-state serum concentration, mean (SD): FLX 10–40 mg/day (mean 19.93 mg); for β of daily dose (mg) on square-root serum concentration, simple linear regression: last datapoints
Experimental: The study spanned three different routine healthcare settings, including inpatient, outpatient, and day-treatment units. […] All dosing steps were recorded along with corresponding dates in the medication protocol. […] Depending on the clinical course, additional visit times were possible.
TDM analysis was conducted according to the guidelines of the Working Group on Neuropsychopharmacology and Pharmacopsychiatry (AGNP) consensus. Blood samples were collected from cubital veins into 7.5-mL monovettes without any additives or anticoagulants at a steady-state trough level. The samples were immediately analyzed (in the case of samples from Wuerzburg, Germany) or analyzed after being received by the TDM laboratory in Wuerzburg, Germany, shipped by regular mail. […] Each analytical series included internal quality control samples, and external control samples were analyzed quarterly. The laboratory responsible for the analysis is certified by a quality control program (https://www.instand-ev.de, accessed on 2 July 2023; https://www.ukw.de/psychiatrie/zuweisende-kolleginnen-und-kollegen/tdm-labor/zertifikate/, accessed on 2 July 2023). Analytical grade chemicals and solvents were procured from Sigma-Aldrich Chemie GmbH (Taufkirchen, Germany).
All statistical analyses were performed using R (R Foundation for Statistical Computing) version 4.1.1. The alpha level for all analyses was set to 0.05. To maximize the comparability of the conclusions from the dataset generated in this study, the main analyses were performed with both the last valid timepoint, as in previous relevant studies, and with all the valid timepoints, as detailed in the next paragraph. […] The model assumptions were verified by means of the semi-automated diagnostic functions in the ‘gvlma’ (Global Validation of Linear Models Assumptions) R package, including evaluation of global statistics, skewness, kurtosis, link function, and heteroscedasticity parameters and inspection of the related plots. […] In addition to the simple linear regressions, multiple linear regressions were performed with four additional hypothesized predictors: age (years), sex (male/female), body weight (kg), and smoking status (yes/no). The variance inflation factor (VIF) was evaluated as a measure of multicollinearity. Both regressions were compared based upon model fit. Second, proportional odds models using the clm (cumulative link models) function in the ‘ordinal’ R package were fitted to examine the serum concentrations as predictors of clinical effects (measured by CGI-I) and adverse effects (measured by PAERS—maximal severity). […] The analyses were repeated with an extended set of hypothesized predictors. For CGI-I, these were age, sex, psychotropic co-medication (i.e., antipsychotic and antidepressant drug), and diagnostic comorbidity (i.e., a single diagnosis versus multiple diagnoses). For PAERS, the predictors were age, sex, and psychotropic co-medication. The proportional odds assumptions in these statistics were verified with likelihood ratio tests using the nominal_test and scale_test functions, while model convergence was tested with the convergence function.
The model with multiple predictors included the variables, as in the single timepoint analyses, as well as the data collection time (i.e., days from the baseline timepoint).
To determine a possible concentration threshold of efficacy, receiver operating curve (ROC) analyses were performed based on a binary logistic regression, and the optimal cutoff was calculated by finding an optimal trade-off between sensitivity and specificity.

[3] = postmortem studies and case reports; cited from earlier work
[4] = cited from earlier work
children and adolescents [5] = assay: Treatment response on Clinical Global Impression-Improvement (CGI-I); type: in vivo, human
Experimental: On the day of blood collection, treatment responses were measured using the Clinical Global Impression (CGI) Scale (Improvement, CGI-I), which clinicians were instructed to rate solely based on the effects of the drug. […] This instrument was specifically designed to quantify the severity of 56 signs of adverse events occurring in pediatric patients under treatment with a psychotropic drug. The 56 items were rated on a Likert scale with 'none', 'slight', 'moderate', 'severe', and 'extremely severe' responses. The maximal severity on any of the items was considered in this study. […] Additionally, indications for the TDM measurement, detailed information on concomitant medications, nicotine use, weight, and height were also recorded. […] All statistical analyses were performed using R (R Foundation for Statistical Computing) version 4.1.1. The alpha level for all analyses was set to 0.05. To maximize the comparability of the conclusions from the dataset generated in this study, the main analyses were performed with both the last valid timepoint, as in previous relevant studies, and with all the valid timepoints, as detailed in the next paragraph. […] In addition to the simple linear regressions, multiple linear regressions were performed with four additional hypothesized predictors: age (years), sex (male/female), body weight (kg), and smoking status (yes/no). The variance inflation factor (VIF) was evaluated as a measure of multicollinearity. Both regressions were compared based upon model fit. Second, proportional odds models using the clm (cumulative link models) function in the 'ordinal' R package were fitted to examine the serum concentrations as predictors of clinical effects (measured by CGI-I) and adverse effects (measured by PAERS-maximal severity). […] The analyses were repeated with an extended set of hypothesized predictors. For CGI-I, these were age, sex, psychotropic co-medication (i.e., antipsychotic and antidepressant drug), and diagnostic comorbidity (i.e., a single diagnosis versus multiple diagnoses). For PAERS, the predictors were age, sex, and psychotropic co-medication. The proportional odds assumptions in these statistics were verified with likelihood ratio tests using the nominal_test and scale_test functions, while model convergence was tested with the convergence function. […] The clmm (cumulative link mixed models) function from the 'ordinal' package was used to test the impact of metabolite level on clinical and adverse effects with CGI-I and […] […] The model with multiple predictors included the variables, as in the single timepoint analyses, as well as the data collection time (i.e., days from the baseline timepoint). To determine a possible concentration threshold of efficacy, receiver operating curve (ROC) analyses were performed based on a binary logistic regression, and the optimal cutoff was calculated by finding an optimal trade-off between sensitivity and specificity. […] The last valid datapoints were included in these analyses as deemed most appropriate. Transdiagnostic responders and responders with depression ([…].X and […].X) were considered separately.

[6] = Responders Transdiagnostic n = 64
[7] = Responders with Depression n = 44

Row | Structure (SMILES) | binding affinity to CYP2D6 (CYP2D6) | Est. of Dose on square-root serum concentration, multiple linear regression [2] | Est. of Body weight on square-root serum concentration, multiple linear regression [2] | Est. of Body weight on square-root serum concentration, linear mixed effect model [2] | Est. of Dose on square-root serum concentration, linear mixed effect model [2] | serum concentration of responders, M+1SD (mean plus 1 standard deviation) [2, 6] [ng/mL] | serum concentration of responders, M-1SD (mean minus 1 standard deviation) [2, 6] [ng/mL] | serum concentration of responders, Q1 (first interquartile) [2, 6] [ng/mL] | serum concentration of responders, Q3 (third interquartile) [2, 6] [ng/mL] | serum concentration of responders, M+1SD (mean plus 1 standard deviation) [2, 7] [ng/mL] | serum concentration of responders, M-1SD (mean minus 1 standard deviation) [2, 7] [ng/mL] | serum concentration of responders, Q1 (first interquartile) [2, 7] [ng/mL] | serum concentration of responders, Q3 (third interquartile) [2, 7] [ng/mL] | β of daily dose on square-root serum concentration, linear mixed-effect model [2] | steady-state serum concentration, range [2] [ng/mL] | mean steady-state serum concentration, mean (SD) [2] [ng/mL] | β of daily dose (mg) on square-root serum concentration, simple linear regression [2] | half-life [4] [h] | also measured
1 | CNCCC(Oc1ccc(C(F)(F)F)cc1)c1ccccc1 (centres unmarked) [FLX, Fluoxetine] | high binding affinity | 0.24 | −0.07 | −0.07 | 0.34 | 191.29 | 57.97 | 73 | 155 | 181.19 | 62.51 | 69.5 | 156.25 | 0.31 | 17 to 396 | 123.66 ± 65.17 | 0.18 | 96 to 140 | patients who do not respond to pharmacologic monotherapy (patients): 40–60%; patients with PAERS max. severity 'extremely severe' (children and adolescents [1]): 1 (0.7%); patients with PAERS max. severity 'severe' (children and adolescents [1]): 2 (1.5%); patients with PAERS max. severity 'none' (no adverse effects) (children and adolescents [1]): 87 (64.9%); patients with PAERS max. severity 'none' (no adverse effects) (children and adolescents [1]; listed as fluoxetine): 64.9%; inhibition of CYP2D6 (CYP2D6): potent inhibitor; serum levels in fatal overdoses [3]: 1300 to 7000 ng/mL; absorption after oral administration [4]: almost completely absorbed; bioavailability ([4]; oral, reduced by hepatic first-pass metabolism): less than 90%; patients with CGI-I 'minimally improved' (children and adolescents [5]; n = 138, FLX 10–40 mg/day): 60 (43.5%); patients with CGI-I 'minimally worse' (children and adolescents [5]; n = 138, FLX 10–40 mg/day): 3 (2.2%); patients with CGI-I 'much worse' (children and adolescents [5]; n = 138, FLX 10–40 mg/day): 2 (1.4%); patients with CGI-I 'no change' (children and adolescents [5]; n = 138, FLX 10–40 mg/day): 8 (5.8%); patients with CGI-I 'very much worse' (children and adolescents [5]; n = 138, FLX 10–40 mg/day): 0 (0%); patients with CGI-I 'minimally improved' (children and adolescents [5]; n = 138, FLX 10–40 mg/day, listed as fluoxetine): 43.5%; patients with marked improvement (children and adolescents [5]; n = 138, much improved plus very much improved): 45.6%
2 | NCCC(Oc1ccc(C(F)(F)F)cc1)c1ccccc1 (centres unmarked) [NORFLX, Norfluoxetine] | high binding affinity | 0.21 | −0.05 | −0.05 | 0.26 | 218.24 | 85.28 | 102.5 | 186 | 223.57 | 78.88 | 98.75 | 184.25 | 0.25 | 21 to 339 | 144.74 ± 65.93 | 0.19 | 96 to 360 | relationship between serum level and therapeutic effect (CGI-I) (children and adolescents [5]; ordinal regressions): no significant relationship
